Data reported in patent publication US6399612B1, “Heteroaryl butyric acids and their derivatives as inhibitors of matrix metalloproteinases” (Warner-Lambert Company, priority 1997, dated 2002).

How the values were obtained:
Assay type in all cases: biochemical
Details in all cases: thiopeptolide substrate Ac-Pro-Leu-Gly-thioester-Leu-Leu-Gly-OEt
[1] = target: MMP-2CD (gelatinase A catalytic domain) (Homo sapiens, UniProt P08253); assay: MMP-2CD inhibition, thiopeptolide substrate
Procedure: (§1) Experiments were carried out with the catalytic domains of the proteinases. […] IC50 values were determined using a thiopeptolide substrate, Ac-Pro-Leu-Gly-thioester-Leu-Leu-Gly-OEt (Ye Q.-Z., Johnson L. L., Hupe D. J., and Baragi V., “Purification and Characterization of the Human Stromelysin Catalytic Domain Expressed in Escherichia coli”, Biochemistry, 1992;31:11231-11235).

[2] = target: T1, MMP-3CD (stromelysin-1 catalytic domain) (Homo sapiens, UniProt P08254); assay: MMP-3CD inhibition, thiopeptolide substrate
T1 construct: Experiments were carried out with the catalytic domains of the proteinases
Procedure: as §1

[3] = target: T2, MMP-13CD (collagenase-3 catalytic domain) (Homo sapiens, UniProt P45452); assay: MMP-13CD inhibition, thiopeptolide substrate
T2 construct: Experiments were carried out with the catalytic domains of the proteinases
Procedure: as §1

T1 sequence (P08254 100-272 limits assumed): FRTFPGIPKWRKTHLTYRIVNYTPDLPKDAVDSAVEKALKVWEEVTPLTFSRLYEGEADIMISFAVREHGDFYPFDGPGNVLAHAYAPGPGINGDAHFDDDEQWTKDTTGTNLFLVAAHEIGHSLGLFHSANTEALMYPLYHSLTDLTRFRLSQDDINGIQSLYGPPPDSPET

| IC50 [1] [µM] | IC50 [2] [µM] | IC50 [3] [µM] | SMILES |
| --- | --- | --- | --- |
| 1.25 | 13 | 10.6 | O=C(O)CCC(=NO)c1ccc(-n2cccn2)cc1 [Example 1, 4-Hydroxyimino-4-(4-pyrazol-1-yl-phenyl)butyric Acid] |
| 0.0639 | 0.298 | 1.1 | O=C(O)CCC(=O)c1ccc(-c2ccc(Cl)s2)cc1 [Example 2, 4-[4-(5-Chloro-thiophen-2-yl)-phenyl]-4-oxo-butyric Acid] |
| 0.014 | 0.105 | 0.12 | O=C(O)CCC(=NO)c1ccc(-c2ccc(Cl)s2)cc1 [Example 3] |
